Patent US20250152731A1, “ANTI-TROP2 ANTIBODY COMBINATION THERAPIES AND METHODS OF USE THEREOF” (priority 2021, published 2025)

How the values were obtained:
TROP2 = experiment: Immunoblotting of TROP2 protein in breast cancer cell lines; format: cell-based, human; settings: breast cancer cell lines
Protocol: (§1) Following treatments, cells were washed with cold PBS and lysed in 1× Laemmli buffer. The protein concentrations in the cell lysates were measured using Pierce BCA protein assay Kit (ThermoFisher). The same amount protein for each sample (20-50 μg/lane) was loaded to SDS-PAGE gel, followed by transferring proteins to a 0.2 μm nitrocellulose membrane (Bio-Rad Laboratories). Membranes were blocked with blocking buffer Blocker Casein in PBS (ThermoFisher) at room temperature for 1 hour, followed by immunoblotting with the primary antibodies in 5% BSA TBST buffer at room temperature overnight. After washing with TBST buffer, the immunoblotting membrane was then probed with the secondary antibodies with fluorescence conjugation. The immunoblots were visualized and the immunoblotting signal intensity quantitated using the Odyssey IR imaging system (Li-Cor Biosciences).
Five cell lines (BCX-011, BCX-010, Sum-159, BCX-010 transfected with control shRNA, and BCX-010 transfected with Zeb1 shRNA) were treated with decitabine (a DNA methyltransferase inhibitor) at 1 μM for 3 days (FIG. 1B). To knockdown Zeb1, BCX-010 cells were transduced with a lentivirus containing Zeb1 shRNA, followed by puromycin selection.
Breast cancer cell lines BCX-010CL, BCX-011CL, and SUM159 cells were treated with decitabine, azacytidine, panobinostat, vorinostat, tazemetostat at […] respectively for 3 days, followed by immunoblotting for E-cad and TROP2 with β-actin as control (FIG. 1D).
The treated cells were lysed. The cell lysate samples were loaded onto SDS-PAGE gel for the western blot. Antibodies ab-214488 and cst-3195 were used to detect TROP2 and E-cadherin respectively. β-actin was used as loading control (FIG. 1C).

[1] = test system: DNMT1, DNMT3A, and DNMT3B; experiment: Immunoblotting of DNA methyltransferases (DNMTs); format: cell-based, human; settings: breast cancer cell lines
Protocol: as §1

[2] = test system: BCX-010, BCX-011 and Sum-159 cells; experiment: Annexin V flow cytometry apoptosis assay; format: cell-based, human; settings: decitabine 1 μM and/or sacituzumab govitecan 0.1 μM, three days; FIGS. 5A-5D
Protocol: In order to determine the effect of decitabine and/or Zeb1 knockdown treatment on sacituzumab govitecan activity, apoptosis was measured in breast cancer cell lines. BCX-010 cells (FIG. 5A and FIG. 5B), BCX-011 cells (FIG. 5C) and Sum-159 cells (FIG. 5D) were seeded in 6-cm plates, then treated with decitabine (1 μM) and/or sacituzumab govitecan (0.1 μM) for three days in an apoptosis assay. After the three day treatment, cells were stained with Annexin V. Flow cytometry was performed to sort Annexin V positive cells (apoptotic cells) (FIGS. 5A-5D). Percentage of apoptotic cells was calculated by Annexin V positive cells over total cell populations.
Cells were seeded in 6 cm plates at a density of 3×10^5 cells per well in triplicates for each treatment group. The following day, cells were treated with decitabine and SG at 1 μM and 0.1 μM respectively, or their combination. […] Using Annexin-V-FLUOS Staining Kit (Roche), cells were stained with Annexin V fluorescence and propidium iodide (PI), following manufacturer's protocol. Samples were analyzed by flow cytometry. Percentage of Annexin V positive apoptotic cells were calculated.
In apoptosis assay, cells were treated with decitabine at 1 μM, SG at 0.1 μM, or their combination for 3 days. Annexin V positive apoptotic cells were measured by flow cytometry. Percentage of apoptotic cells over total cell populations was calculated (FIG. 7D).

Sum-159 cells = experiment: Colony formation assay, Sum-159; format: cell-based, human; settings: sacituzumab govitecan 200 nM, decitabine 200 nM
Protocol: FIGS. 6A-6E show a colony assay of BCX-010 (FIGS. 6A-6B), BCX-011 (FIG. 6C-6D), and Sum-159 cells ([…]) after treatment with vehicle, sacituzumab govitecan (200 nM), and/or decitabine (200 nM) for 10 days. FIGS. 6A-6C show agar plates after 10 days of colony formation.
In order to determine the effect of decitabine treatment on sacituzumab govitecan activity, colony formation assays were performed in BCX-010 cells (FIGS. 6A-6B), BCX-011 cells (FIG. 6C-6D), and Sum-159 breast cancer cells (FIG. 6E-6F).
Cells were seeded in 6-well plates at a density of 1000 cells per well in triplicates for each treatment group. Next day, cells were treated with single drugs, or combination at the different concentrations. Culture medium was changed with fresh drugs twice a week. Cells were cultured for 3 weeks. Cell colonies were then fixed in 10% formalin and stained with 0.05% crystal violet in 25% methanol. The stained colonies were imaged and total colony area was quantitated using NIH ImageJ v.1.48 software. Effect-based Combination Index (CI) was calculated by inhibition percentage of single drug and combination treatments using Bliss combination model. CI=((EA+EB)−(EA*EB))/EAB, where EA, EB, and EAB are effects of drug A, B and combination AB inhibition percentage. Here the effect is inhibition percentage of colony formation compared to vehicle controls. […]

BCX-010 cells = experiment: Colony formation assay, BCX-010 control and Zeb1 knockdown; format: cell-based, human; settings: BCX-010 control and Zeb1 knockdown cells; decitabine 5 nM, sacituzumab govitecan 20 nM, 14 days
Protocol: FIGS. 7A-7B show a colony assay of BCX-010 cells transfected with control shRNA (FIG. 7A) or Zeb1 shRNA (FIG. 7B) after treatment with vehicle, sacituzumab govitecan (20 nM), and/or decitabine (5 nM) for 14 days. After 14 days, cell colonies formed on the plates, were fixed with 10% formalin, and stained with 0.05% crystal violet. […] Annexin V positive apoptotic cells were measured by flow cytometry. Percentage of apoptotic cells over total cell populations was calculated.
In order to determine the effect of decitabine and/or Zeb1 knockdown treatment on sacituzumab govitecan activity, colony formation assays were performed in BCX-010 breast cancer cells. BCX-010 cells (control and Zeb1 knockdown) were seeded into 6-well plates at 1000 cells/well. Cells were treated with decitabine (5 nM) and/or sacituzumab govitecan ([…]) for 14 days. Culture medium with replaced with culture medium containing fresh drugs twice. After 14 days, cell colonies form on the plates were fixed with 10% formalin and stained with 0.05% crystal violet. Total colony area and colony number were quantified using ImageJ software.

[3] = test system: BCX-010CL and BCX-011CL cells; experiment: Cell survival assay of SG in TROP2-overexpressing cells; format: cell-based, human; settings: serial dilutions, 3 days, FIG. 8B
Protocol: TROP2-overexpressing cells and control cells were treated with SG at concentrations in serial dilutions for 3 days. SG IC50 was calculated.
For TROP2 overexpression, breast cancer cells seeded in 6-well plates were transfected with TROP2 expression plasmid pCMV6-entry-TROP2 using Lipofectamine 3000 Kit. Two days after transfection, cells were treated with G-418 for 2-3 passages.
After G-418 selection, immunoblotting was performed to detect TROP2 expression (FIG. 8A). Next, TROP2-overexpressing cells and control cells were treated with SG at concentrations in serial dilutions for 3 days. SG IC50 was calculated (FIG. 8B).

[4] = biological target: T1, TROP2 (Trophoblast cell surface antigen 2) (human, UniProt P09758 27-323); experiment: immunofluorescence microscopy, SG-Alexa-488 at 2 ug/ml on BCX cells overexpressing TROP2; signal similar to that on MDA-MB-468 cells with high endogenous TROP2
T1 construct: whole, on cells; also called TACSTD2; tumor-associated calcium signal transducer 2
T1 sequence (looked up): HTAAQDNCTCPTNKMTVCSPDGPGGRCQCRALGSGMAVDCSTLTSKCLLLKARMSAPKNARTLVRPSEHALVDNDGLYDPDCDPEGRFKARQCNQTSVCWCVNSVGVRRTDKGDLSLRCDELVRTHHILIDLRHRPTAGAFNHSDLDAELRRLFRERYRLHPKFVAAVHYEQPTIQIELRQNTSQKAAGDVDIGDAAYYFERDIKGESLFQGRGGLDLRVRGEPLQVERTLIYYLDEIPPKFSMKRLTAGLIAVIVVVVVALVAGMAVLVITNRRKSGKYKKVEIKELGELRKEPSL

[5] = biological target: T1, TROP2 (Trophoblast cell surface antigen …); experiment: conclusion drawn from the examples' data (immunofluorescence, cell assays)
[6] = test system: TROP2 overexpressing cells; experiment: Immunofluorescence of ADC binding on cell membrane; format: cell-based, human; settings: 2 μg/ml, 2 hours, room temperature; FIG. 12A
Protocol: ADC drug SG was labeled with alexa fluorescent dye using Alexa Fluo 488 Conjugation Lightening Kit (Abcam, #ab236553), following the manufactory protocol. Final SG-Alexa-488 concentration was 1 μg/μl. To bind ADC to cells, cells were seeded on cover slices in 6-well plates overnight, followed by blocking with 3% BSA/PBS at room temperature for 1 hour. Then cells were incubated with SG-Alexa-488 at 2 μg/ml at room temperature for 2 hours, followed by PBS wash twice. For internalization assay, SG-Alexa-488 was added into the culture medium in the wells at 2 μg/ml for 10 min, 3 hours, and 24 hours. Cells were fixed with 4% paraformaldehyde at room temperature for 15 min, PBS wash twice. The cover slices were mounted onto slide with DAPI counterstaining. Fluorescence on cell surface and in cytoplasm was monitored using Olympus BX51 fluorescent microscope and imaged using Nuance imaging system.

Molecule: CCc1c(C#N)c(SC(C(N)=O)c2ccccc2)nc(N2CCC(N)CC2)c1C#N (stereo not shown) [GSK-3685032]
- TROP2 expression (DNMT1 specific inhibitor) (TROP2): did not upregulate TROP2 expression
- DNMT1 protein levels [1]: decreased DNMT1 protein levels

Molecule: sacituzumab govitecan
- apoptosis (Annexin V positive cells) [2]: induced cell apoptosis in BCX-010 and Sum-159 cells
- colony formation (Sum-159 cells): inhibited cell colony formation in Sum-159 cells
- colony formation (BCX-010 cells): inhibited cell colony formation
- cell sensitivity to SG (IC50) in TROP2-overexpressing vs control cells [3]: Overexpression of TROP2 sensitizes cells

B1: sacituzumab govitecan-Alexa-488 (antibody, V domains shown)
VH: QVQLQQSGSELKKPGASVKVSCKASGYTFTNYGMNWVKQAPGQGLKWMGWINTYTGEPTYTDDFKGRFAFSLDTSVSTAYLQISSLKADDTAVYFCARGGFGSSYWYFDVWGQGSLVTVSS
VL: DIQLTQSPSSLSASVGDRVSITCKASQDVSIAVAWYQQKPGKAPKLLIYSASYRYTGVPDRFSGSGSGTDFTLTISSLQPEDFAVYYCQQHYITPLTFGAGTKVEIK
modifications: conjugated to SN-38 (antibody drug conjugate) and labelled with Alexa Fluor 488; sites not stated
- binding result [4]: binds

B2: sacituzumab govitecan (antibody, V domains shown)
VH: QVQLQQSGSELKKPGASVKVSCKASGYTFTNYGMNWVKQAPGQGLKWMGWINTYTGEPTYTDDFKGRFAFSLDTSVSTAYLQISSLKADDTAVYFCARGGFGSSYWYFDVWGQGSLVTVSS
VL: DIQLTQSPSSLSASVGDRVSITCKASQDVSIAVAWYQQKPGKAPKLLIYSASYRYTGVPDRFSGSGSGTDFTLTISSLQPEDFAVYYCQQHYITPLTFGAGTKVEIK
modifications: conjugated to SN-38 (antibody drug conjugate); sites not stated
notes: also called SG; Trodelvy
- binding result [5]: binds

B3: SG ADC labeled with Alexa-Fluo-488 (conjugate)
VH: QVQLQQSGSELKKPGASVKVSCKASGYTFTNYGMNWVKQAPGQGLKWMGWINTYTGEPTYTDDFKGRFAFSLDTSVSTAYLQISSLKADDTAVYFCARGGFGSSYWYFDVWGQGSLVTVSS
VL: DIQLTQSPSSLSASVGDRVSITCKASQDVSIAVAWYQQKPGKAPKLLIYSASYRYTGVPDRFSGSGSGTDFTLTISSLQPEDFAVYYCQQHYITPLTFGAGTKVEIK
- immunofluorescent signal on cell membrane, TROP2-overexpressing cells [6]: strong immunofluorescent signal on cell membrane
- immunofluorescent signal on cell membrane, control cells [6]: negative signal
